Data: patent US20260174721A1, “AGENT FOR RESTORING METAL HOMEOSTASIS” (Oxford Antibiotic Group GmbH, priority 2022, published 2026)
Read-outs that look alike come from different tables or passages of the source.

Experiments:
[1] = tested on: transgenic C. elegans strain CL2659; assay: β-amyloid test system: delay of paralysis in transgenic C. elegans strain CL2659 (Alzheimer testing); assay type: in vivo, Caenorhabditis elegans; conditions: CL2659 stage L3 larvae, 48 hours, tested at 1 mg/ml, 100 μg/ml, 10 μg/ml, — = no effect even at 1 mg/ml; for minimal effective concentration: Caenorhabditis elegans, read-out: Alzheimer: concentration range in which a delay in paralysis was observed
Description: For this purpose, stage L3 worm larvae were used at a density of 10-20 worms per well. The expression of β-amyloid in the muscle cells was induced by increasing the temperature, and the associated paralysis was recorded at regular intervals until the end of the test after 48 hours.
(§1) For this purpose, the above substances were tested at concentrations of 1 mg/ml, 100 μg/ml, and 10 μg/ml in comparison with quercetin as a […] control.

[2] = tested on: transgenic C. elegans strain NL5901; assay: α-synuclein test system: reduction of α-synuclein-GFP expression in transgenic C. elegans strain NL5901 (Parkinson testing); assay type: in vivo, Caenorhabditis elegans; conditions: NL5901, GFP readout 24 to 48 hours, tested at 1 mg/ml, 100 μg/ml, 10 μg/ml, — = no effect even at 1 mg/ml; for minimal effective concentration: Caenorhabditis elegans, read-out: Parkinson: concentration range in which a reduction in α-synuclein expression was detectable
Description: (§2) The same substances as above were tested in a 96-well procedure in the initially mentioned screening assay using the nematode Caenorhabditis elegans (Pretsch et al., see above) in a standardized α-synuclein test system using the transgenic C. elegans strain NL5901 for their potential suitability as an agent for treating Parkinson's disease. This worm strain expresses human α-synuclein bound to green fluorescent protein (GFP) in all muscle cells. GFP labeling allows a direct detection of expressed protein levels using a multiplate reader for 24 to 48 hours.
(§3) For this purpose, the substances were again tested at concentrations of 1 mg/ml, 100 μg/ml, and 10 μg/ml, but this time in comparison to the initially mentioned Parkinson therapeutic agent levodopa as a control.

Caenorhabditis elegans = assay: C. elegans nematode assay, overall rating over the Alzheimer and Parkinson tests; assay type: in vivo; conditions: for minimal effective concentration: Caenorhabditis elegans, read-out: Score
Description: The substances (1) to (41) and (101) to (108), prepared in the above synthesis examples or purchased, were tested for their potential suitability as an agent for treating Alzheimer's disease in a 96-well procedure in the initially mentioned screening assay using the nematode Caenorhabditis elegans (Pretsch et al., see above) in a standardized β-amyloid test system using the transgenic C. elegans strain CL2659. For this purpose, stage L3 worm larvae were used at a density of 10-20 worms per well. The expression of β-amyloid in the muscle cells was induced by increasing the temperature, and the associated paralysis was recorded at regular intervals until the end of the test after 48 hours.
as §1, §2, §3

[3] = rating from the effective concentration in both tests

In the case of NCCCC(=O)NC1CCN(C(=O)CC(=O)OC23CC4CC(CC(C4)C2)C3)CC1 [(15), malonic acid adamantan-1-yl ester (4-(4-aminobutyryl)amino)piperidine amide], the minimal effective concentration [1] is reported as over 10 µg/mL, the minimal effective concentration [2] is reported as over 10 µg/mL and the minimal effective concentration (Caenorhabditis elegans; [3]) is reported as 10 to 100 µg/mL.
O=C(CC(=O)N1CCNCC1)NC12CC3CC(CC(C3)C1)C2 [(20), N-adamantan-1-yl-N′-piperazine malonic acid diamide] was tested, and the minimal effective concentration [1] was over 10 µg/mL, the minimal effective concentration [2] was over 10 µg/mL and the minimal effective concentration (Caenorhabditis elegans; [3]) was 10 to 100 µg/mL.
For O=C([O-])CC(=O)[O-].[Na+].[Na+] [(3), disodium malonate], the “Alzheimer: concentration range in which a delay in paralysis was observed” value [1] was over 10 µg/mL, the “Parkinson: concentration range in which a reduction in α-synuclein expression was detectable” value [2] was over 10 µg/mL and the Score (Caenorhabditis elegans; [3]) was “++ (a compound that is already effective at a concentration >10 μg/ml and therefore rated “++”)”.
With NCCCC(=O)N1CCN(C(=O)CC(=O)NC23CC4CC(CC(C4)C2)C3)CC1 [(21), N-adamantan-1-yl-N′-(4-(4-aminobutyryl)piperazine)malonic acid diamide] the minimal effective concentration [1] was over 10 µg/mL, the minimal effective concentration [2] was over 10 µg/mL and the minimal effective concentration (Caenorhabditis elegans; [3]) was 10 to 100 µg/mL.
Compound O=C(O)CC(=O)O [(1), malonic acid] has a minimal effective concentration [1] of over 100 µg/mL, a minimal effective concentration [2] of over 100 µg/mL and a minimal effective concentration (Caenorhabditis elegans; [3]) of over 100 µg/mL. For the same compound, the “concentration from which the compound was effective” value (Caenorhabditis elegans; both tests) was over 100 µg/mL.
For CC12CC3CC(C)(C1)CC(NC(=O)CC(=O)N1CCN(Cc4cccc(F)c4)CC1)(C3)C2 [(37), N-(3,5-dimethyladamantan-1-yl)-N′-4-(3-fluorobenzyl)piperazine malonic acid diamide], the minimal effective concentration (Caenorhabditis elegans) was 10 to 100 µg/mL.
NCCCNC(=O)CC(=O)N1CCCC2CCCCC21 (stereo not drawn) [(24), N-(3-aminopropyl)-N′-decahydroquinoline malonic acid diamide] gave a minimal effective concentration [1] of over 10 µg/mL, a minimal effective concentration [2] of over 10 µg/mL and a minimal effective concentration (Caenorhabditis elegans; [3]) of 10 to 100 µg/mL.
COc1ccc(N2CCN(C(=O)CC(=O)NC34CC5CC(C)(CC(C)(C5)C3)C4)CC2)cc1 [(39), N-(3,5-dimethyladamantan-1-yl)-N′-4-(4-methoxyphenyl)piperazine malonic acid diamide] was tested, and the minimal effective concentration (Caenorhabditis elegans) was 10 to 100 µg/mL.
In the case of NCCCNC(=O)C12CC3CC(CC(C3)C1)C2 [(103), 1-Adamantane carboxylic acid-N-(3-aminopropyl)amide, reference compound], the Score (Caenorhabditis elegans; [3]) is reported as “−”.
For COC(=O)C(C)C(=O)OC [(102), Methyl malonic acid dimethyl ester, reference compound], the “efficacy in the C. elegans assay” value (Caenorhabditis elegans; both tests) was “neither dimethyl malonic acid (101) nor dimethyl malonic acid dimethyl ester (102) proved to be effective” and the Score (Caenorhabditis elegans; [3]) was “−”.
Work on NC(=O)CC(N)=O [(2), malonic acid diamide] yielded a minimal effective concentration [1] of over 10 µg/mL, a minimal effective concentration [2] of over 10 µg/mL and a minimal effective concentration (Caenorhabditis elegans; [3]) of 10 to 100 µg/mL.
For CC12CC3CC(C)(C1)CC(NC(=O)CC(=O)N1CCN(Cc4cccc(C(F)(F)F)c4)CC1)(C3)C2 [(36), N-(3,5-dimethyladamantan-1-yl)-N′-4-(3-trifluoromethylbenzyl)piperazine malonic acid diamide], the minimal effective concentration (Caenorhabditis elegans) was 10 to 100 µg/mL.
COC(=O)CC(=O)NC12CC3CC(CC(C3)C1)C2 [(16), malonic acid methyl ester N-(adamantan-1-yl)amide] showed a minimal effective concentration [1] of over 10 µg/mL, a minimal effective concentration [2] of over 10 µg/mL and a minimal effective concentration (Caenorhabditis elegans; [3]) of 10 to 100 µg/mL.
Work on CCOC(=O)CC(=O)OC12CC3CC(CC(C3)C1)C2 [(9), malonic acid adamantan-1-yl ethyl ester] yielded a minimal effective concentration [1] of over 10 µg/mL, a minimal effective concentration [2] of over 10 µg/mL and a minimal effective concentration (Caenorhabditis elegans; [3]) of 10 to 100 µg/mL.
In the case of CN(CCCN)C(=O)CC(=O)NC12CC3CC(CC(C3)C1)C2 [(19), N-adamantan-1-yl-N′-(3-aminopropyl)-N′-methyl malonic acid diamide], the minimal effective concentration [1] is reported as over 10 µg/mL, the minimal effective concentration [2] is reported as over 10 µg/mL and the minimal effective concentration (Caenorhabditis elegans; [3]) is reported as 10 to 100 µg/mL.
Compound O=C(CC(=O)N1CCNCC1)OC12CC3CC(CC(C3)C1)C2 [(12), malonic acid adamantan-1-yl ester piperazine amide] has a minimal effective concentration (Caenorhabditis elegans) of 10 to 100 µg/mL.
CC1(C)C2CCC(CNC(=O)CC(=O)NCCCN)C1C2 (stereo not drawn) [(26), N-(3-aminopropyl)-N′-(6,6-dimethylbicyclo[3.1.1]heptane-2-ylmethyl)malonic acid diamide] showed a minimal effective concentration [1] of over 10 µg/mL, a minimal effective concentration [2] of over 10 µg/mL and a minimal effective concentration (Caenorhabditis elegans; [3]) of 10 to 100 µg/mL.
O=C(O)CC(=O)NC12CC3CC(CC(C3)C1)C2 [(17), N-(adamantan-1-yl)malonic acid amide] gave a minimal effective concentration [1] of over 10 µg/mL, a minimal effective concentration [2] of over 10 µg/mL and a minimal effective concentration (Caenorhabditis elegans; [3]) of 10 to 100 µg/mL.
In the case of COC(=O)CC(N)=O [(6), malonic acid methyl ester amide], the “Alzheimer: concentration range in which a delay in paralysis was observed” value [1] is reported as over 100 µg/mL, the “Parkinson: concentration range in which a reduction in α-synuclein expression was detectable” value [2] is reported as over 100 µg/mL and the Score (Caenorhabditis elegans; [3]) is reported as “+ (a compound that is only effective above 100 μg/ml and therefore rated “+”)”.
Compound COc1ccc(N2CCN(C(=O)CC(=O)NC34CC5CC(C)(CC(C)(C5)C3)C4)CC2)c(OC)c1 [(40), N-(3,5-dimethyladamantan-1-yl)-N′-4-(2,4-dimethoxyphenyl)piperazine malonic acid diamide] has a minimal effective concentration (Caenorhabditis elegans) of 10 to 100 µg/mL.
With NCCCNC(=O)CC(=O)NC12CC3CC(CC(C3)C1)C2 [(18), N-adamantan-1-yl-N′-(3-aminopropyl)malonic acid diamide] the minimal effective concentration [1] was over 100 µg/mL, the minimal effective concentration [2] was over 100 µg/mL and the minimal effective concentration (Caenorhabditis elegans; [3]) was over 100 µg/mL.
Compound NCCCNC(=O)CC(=O)N1CCCCC1 [(23), N-(3-aminopropyl)-N′-piperidine malonic acid diamide] has a minimal effective concentration (Caenorhabditis elegans) of 10 to 100 µg/mL.
CN(CCCN)C(=O)CC(=O)OC12CC3CC(CC(C3)C1)C2 [(11), malonic acid adamantan-1-yl ester N-(3-aminopropyl)-N-methylamide] was tested, and the minimal effective concentration [1] was over 10 µg/mL, the minimal effective concentration [2] was over 10 µg/mL and the minimal effective concentration (Caenorhabditis elegans; [3]) was 10 to 100 µg/mL.
With O=C(CC(=O)N1CCN(Cc2cccc(C(F)(F)F)c2)CC1)OC12CC3CC(CC(C3)C1)C2 [(29), malonic acid adamantan-1-yl ester 4-(3-trifluoromethylbenzyl)piperazine amide] the minimal effective concentration (Caenorhabditis elegans) was 10 to 100 µg/mL.
In the case of CC(C)(C(=O)O)C(=O)O [(101), Dimethyl malonic acid, reference compound], the “efficacy in the C. elegans assay” value (Caenorhabditis elegans; both tests) is reported as “neither dimethyl malonic acid (101) nor dimethyl malonic acid dimethyl ester (102) proved to be effective” and the Score (Caenorhabditis elegans; [3]) is reported as “−”.
With OC12CC3CC(CC(C3)C1)C2 [(106), 1-Adamantanol, reference compound] the Score (Caenorhabditis elegans; [3]) was “−”.
For O=C(CC(=O)N1CCN(Cc2cccc(F)c2)CC1)OC12CC3CC(CC(C3)C1)C2 [(30), malonic acid adamantan-1-yl ester 4-(3-fluorobenzyl)piperazine amide], the minimal effective concentration (Caenorhabditis elegans) was 10 to 100 µg/mL.
In the case of NC12CC3CC(CC(C3)C1)C2 [(107), 1-Adamantanamine, reference compound], the Score (Caenorhabditis elegans; [3]) is reported as “−”.
For CNCCCNC(=O)OC(C)(C)C [(105), 3-(Methylamino)propyl carbamic acid tert-butyl ester, reference compound], the Score (Caenorhabditis elegans; [3]) was “−”.
NCCCNC(=O)CC(=O)N1CCOCC1 [(22), N-(3-aminopropyl)-N′-morpholine malonic acid diamide] gave a minimal effective concentration (Caenorhabditis elegans) of 10 to 100 µg/mL.
With CC12CC3CC(C)(C1)CC(NC(=O)CC(=O)N1CCNCC1)(C3)C2 [(35), N-(3,5-dimethyladamantan-1-yl)-N′-piperazine malonic acid diamide] the minimal effective concentration (Caenorhabditis elegans) was 10 to 100 µg/mL.
COC(=O)CC(=O)[O-].[K+] [(5), malonic acid methyl ester potassium salt] gave a minimal effective concentration (Caenorhabditis elegans) of 10 to 100 µg/mL.
Compound COc1ccccc1N1CCN(C(=O)CC(=O)OC23CC4CC(CC(C4)C2)C3)CC1 [(31), malonic acid adamantan-1-yl ester 4-(2-methoxyphenyl)piperazine amide] has a minimal effective concentration (Caenorhabditis elegans) of 10 to 100 µg/mL.
For CC(C)(C)OC(=O)NCCCN [(104), 3-Aminopropyl carbamic acid tert-butyl ester, reference compound], the Score (Caenorhabditis elegans; [3]) was “−”.
NCCCNC(=O)CC(=O)N1CCCc2ccccc21 [(108), N-(3-aminopropyl)-N′-tetrahydroquinoline malonic acid diamide] was tested, and the “efficacy in the C. elegans assay” value (Caenorhabditis elegans; both tests) was “ineffectiveness” and the Score (Caenorhabditis elegans; [3]) was “−”.
